Data from paper PMC4595200 (BMC Plant Biology, 2015).

Molecular target: T1, truncated AtAPC2 (N-terminally truncated AtAPC2) (Arabidopsis thaliana, UniProt Q9FI43)
T1 construct: gene APC2; transmembrane carrier domain from residue 164 to C-terminus, EF-hand N-terminal domain removed, N-terminal His tag (pET16b), E. coli Rosetta 2 inclusion bodies, reconstituted in liposomes
T1 sequence (Q9FI43 164-487): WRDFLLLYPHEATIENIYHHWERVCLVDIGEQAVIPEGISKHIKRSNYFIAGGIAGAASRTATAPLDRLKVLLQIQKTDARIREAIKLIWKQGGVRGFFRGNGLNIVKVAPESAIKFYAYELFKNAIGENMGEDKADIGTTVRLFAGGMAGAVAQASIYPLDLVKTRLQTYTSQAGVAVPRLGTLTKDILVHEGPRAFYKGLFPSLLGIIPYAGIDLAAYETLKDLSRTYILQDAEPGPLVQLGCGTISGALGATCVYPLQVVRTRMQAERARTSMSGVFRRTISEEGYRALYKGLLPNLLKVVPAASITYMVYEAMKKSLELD
Experiment: radiolabelled uptake into proteoliposomes
Assay type: biochemical
Conditions: pH 7.5, 30 °C, labelled compound

Row | SMILES | radiolabelled uptake into proteoliposomes (ADP import / ATP export (ATP-loaded), 5 min) | radiolabelled uptake into proteoliposomes (ATP import / Pi export (Pi-loaded), 50 μM ATP)
1 | Nc1ncnc2c1ncn2[C@@H]1O[C@H](COP(=O)(O)OP(=O)(O)O)[C@@H](O)[C@H]1O [ADP] | ADP/ATP exchange of both, full-length and truncated, AtAPC2 variants remained more or less unaltered | 
2 | Nc1ncnc2c1ncn2[C@@H]1O[C@H](COP(=O)(O)OP(=O)(O)OP(=O)(O)O)[C@@H](O)[C@H]1O [ATP] |  | ATP uptake measurements verified that truncated AtAPC2 is functional
